# Data taken from patent US10172957B2, “Acid-labile lipophilic prodrugs of cancer chemotherapeutic agents” (priority 2011, dated 2019).
# What was measured:
# Assay type in all cases: in vitro ADME
# [1] = Stability in human plasma at 37° C.
# Experimental: (§1) The stability of the acid labile, lipophilic molecular conjugates to hydrolysis in plasma was evaluated to determine their potential to release the active cancer chemotherapeutic agents into systemic circulation and thereby cause general off target toxicity (“side effects”). The conjugates were incubated with plasma of mouse, rat and human origin.
# (§2) HPLC grade Methanol from Fisher (Fair lawn, NJ, USA). Part No: A452-4 (074833). HPLC grade Water from Fisher (Fair lawn, NJ, USA). Part No: W5-4 (073352). Drug-free mouse, rat and human plasmas were purchased from Innovative Research Inc. (Southfield, Mich., USA). LIPOSYN® I.V. (30% soybean oil and egg yolk phospholipids, Abbott Laboratories) Fat Emulsion from Hospira, Inc. (Lake Forest, Ill.).
# (§3) Each drug (ART 198, ART 273, ART 488 and ART 489) was prepared in triplicate in mouse, rat and human plasma individually at […] concentration and vortexed for 1 minute and placed in a water bath at 37° C. at a shake rate of 75 per minute. Samples were drawn at time points of 0, 15, 30, 45, 60, 75, 90, 105, 120, 135, 150, 165, 180, 210, 240, 300, 360 and 480 minutes.
# (§4) Chromatographic separation of the compounds was performed on a Waters Acquity UPLC™ using a BEH C18 column (1.7 μm, 2.1×50 mm). The mobile phase consisted of Methanol: 0.1% Formic acid (80:20). The flow rate was 0.3 ml/min; the sample injection volume was 5 μL, resulting in a 3 minute run time.
# (§5) The MS instrumentation consisted of a Waters Micromass Quattro Micro™ triple-quadrupole system (Manchester, UK). The MS system was controlled by a 4.0 version of MassLynx software. Ionization was performed in the positive electrospray ionization mode. MS/MS conditions were the following: capillary voltage 3.02 kV; cone voltage 50 v; extractor voltage 5 v; and RF lens voltage 0.5 v. The source and desolvation temperatures were 100° C. and 400° C. respectively, and the desolvation and cone gas flow were 400 and 30 L/hr, respectively.
# (§6) The selected mass-to-charge (m/z) ratio transitions of the ART 198 used in the selected ion monitoring (SIM) were: for ART 198, 617 (M+K)^+, for ART 273, 589 (M+K)^+, for ART 488, 913 (M+Na)^+, and for ART 489, 957 (M+Na)^+. The dwell time was set at 200 msec. MS conditions were optimized using direct infusion of standard solutions prepared in methanol and delivered by a syringe pump at a flow rate of 20 μL/min.
# (§7) Samples of 100 μL were collected at time points of 0, 15, 30, 45, 60, 75, 90, 105, 120, 135, 150, 165, 180, 210, 240, 300, 360 and 480 minutes respectively and the reaction was terminated with methanol. In a separate set of experiments the acid labile, lipophilic molecular conjugates were dissolved in a small amount of ethanol and diluted into a lipid emulsion (Liposyn®) and added to mouse and human plasma before incubation and the hydrolysis of the conjugates was similarly measured. Collected plasma samples of 100 μL containing drug were placed in separate Eppendorf micro centrifuge tubes for processing. Methanol (200 μL) was added to extract the drug using the protein precipitation technique. The micro tubes were then vortex mixed for 10 minutes and centrifuged for 15 minutes at a speed of 10,000 rpm (Eppendorf 5415C centrifuge). The supernatant was collected and filtered using a 0.45 μm filter (Waters 13 mm GHP 0.45 μm) before analysis.
# (§8) The weighted linear least-squares (1/x) regression was used as the mathematical model. The coefficient (r) for the compounds ranged from 0.9925 to 0.9999. The calibration range was selected according to the concentrations anticipated in the samples to be determined.
# (§9) Samples were collected at various times and the percent remaining of the acid labile, lipophilic molecular conjugate of the cancer chemotherapeutic agent was determined along with the percent of the chemotherapeutic agent released from the hydrolysis of the conjugate.
# [2] = Stability in mouse plasma when added in a lipid emulsion (Liposyn); settings: 37° C.
# Experimental: as §2, §4, §5, §6, §7, §9
# [3] = Stability in human plasma when added in a lipid emulsion (Liposyn); settings: 37° C.
# Experimental: as §2, §4, §5, §6, §7, §9
# [4] = Stability in rat plasma at 37° C.
# Experimental: as §1, §2, §3, §4, §5, §6, §7, §8, §9
smiles,measurement,setting,value
CCCCCCCCCCCCCCCC1OCC(COC(=O)O[C@@H]2C(=O)C=C(C)[C@@H]3C[C@H]4OC(=O)C(OC(=O)CC(O)(C(C)C)C(C)C)C5[C@@H](C)[C@@H](O)[C@@]6(O)OC[C@@]54C6[C@@]23C)O1 (stereo partly drawn) [ART 488],percent remaining of initial drug,[1]; 0 min,100%
same,percent remaining of initial drug,[1]; 15 min,90.8%
same,percent remaining of initial drug,[1]; 30 min,89.1%
same,percent remaining of initial drug,[1]; 45 min,87.8%
same,percent remaining of initial drug,[1]; 60 min,87.9%
same,percent remaining of initial drug,[1]; 75 min,87.9%
same,percent remaining of initial drug,[1]; 90 min,87.1%
same,percent remaining of initial drug,[1]; 105 min,86.2%
same,percent remaining of initial drug,[1]; 120 min,85.3%
same,percent remaining of initial drug,[1]; 135 min,84.0%
same,percent remaining of initial drug,[1]; 150 min,82.7%
same,percent remaining of initial drug,[1]; 165 min,81.1%
same,percent remaining of initial drug,[1]; 180 min,78.6%
same,percent remaining of initial drug,[1]; 210 min,78.1%
same,percent remaining of initial drug,[1]; 240 min,76.5%
same,percent remaining of initial drug,[1]; 300 min,59.3%
same,percent remaining of initial drug,[1]; 360 min,59.8%
same,percent remaining of initial drug,[1]; 480 min,43.6%
same,percent remaining of initial drug,[2]; 0 min,100%
same,percent remaining of initial drug,[2]; 15 min,98.7%
same,percent remaining of initial drug,[2]; 30 min,98.2%
same,percent remaining of initial drug,[2]; 45 min,97.4%
same,percent remaining of initial drug,[2]; 60 min,96.9%
same,percent remaining of initial drug,[2]; 75 min,97.0%
same,percent remaining of initial drug,[2]; 90 min,98.3%
same,percent remaining of initial drug,[2]; 105 min,96.0%
same,percent remaining of initial drug,[2]; 120 min,95.2%
same,percent remaining of initial drug,[2]; 135 min,93.8%
same,percent remaining of initial drug,[2]; 150 min,93.1%
same,percent remaining of initial drug,[2]; 165 min,92.9%
same,percent remaining of initial drug,[2]; 180 min,91.8%
same,percent remaining of initial drug,[2]; 210 min,91.7%
same,percent remaining of initial drug,[2]; 240 min,91.4%
same,percent remaining of initial drug,[2]; 300 min,91.3%
same,percent remaining of initial drug,[2]; 360 min,90.0%
same,percent remaining of initial drug,[3]; 0 min,100%
same,percent remaining of initial drug,[3]; 15 min,98.3%
same,percent remaining of initial drug,[3]; 30 min,97.3%
same,percent remaining of initial drug,[3]; 45 min,96.1%
same,percent remaining of initial drug,[3]; 60 min,95.8%
same,percent remaining of initial drug,[3]; 75 min,95.3%
same,percent remaining of initial drug,[3]; 90 min,95.6%
same,percent remaining of initial drug,[3]; 105 min,94.6%
same,percent remaining of initial drug,[3]; 120 min,94.5%
same,percent remaining of initial drug,[3]; 135 min,92.5%
same,percent remaining of initial drug,[3]; 150 min,92.2%
same,percent remaining of initial drug,[3]; 165 min,91.9%
same,percent remaining of initial drug,[3]; 180 min,91.0%
same,percent remaining of initial drug,[3]; 210 min,91.0%
same,percent remaining of initial drug,[3]; 240 min,90.7%
same,percent remaining of initial drug,[3]; 300 min,90.7%
same,percent remaining of initial drug,[3]; 360 min,90.2%
same,percent remaining of initial drug,[3]; 480 min,88.1%
same,percent remaining of initial drug,[4]; 480 min,33.3%
COC(=O)[C@@]12OC[C@]34[C@H]([C@@H](O)[C@@H]1O)[C@@]1(C)CC(=O)C(O)=C(C)[C@@H]1C[C@H]3OC(=O)C(OC(=O)CC1(O)CCCCC1)[C@@H]24 (stereo partly drawn) [ART 198],percent remaining of initial drug,[1]; 0 min,100%
same,percent remaining of initial drug,[1]; 15 min,99.3%
same,percent remaining of initial drug,[1]; 30 min,99.1%
same,percent remaining of initial drug,[1]; 45 min,94.9%
same,percent remaining of initial drug,[1]; 60 min,94.6%
same,percent remaining of initial drug,[1]; 75 min,93.1%
same,percent remaining of initial drug,[1]; 90 min,89.9%
same,percent remaining of initial drug,[1]; 105 min,87.0%
same,percent remaining of initial drug,[1]; 120 min,68.5%
same,percent remaining of initial drug,[1]; 135 min,66.4%
same,percent remaining of initial drug,[1]; 150 min,61.1%
same,percent remaining of initial drug,[1]; 165 min,59.6%
same,percent remaining of initial drug,[1]; 180 min,48.6%
same,percent remaining of initial drug,[1]; 210 min,47.6%
same,percent remaining of initial drug,[1]; 240 min,46.0%
same,percent remaining of initial drug,[1]; 300 min,44.4%
same,percent remaining of initial drug,[1]; 360 min,39.6%
same,percent remaining of initial drug,[1]; 480 min,34.2%
same,percent remaining of initial drug,[4]; 0 min,100%
same,percent remaining of initial drug,[4]; 15 min,95.8%
same,percent remaining of initial drug,[4]; 30 min,84.0%
same,percent remaining of initial drug,[4]; 45 min,66.0%
same,percent remaining of initial drug,[4]; 60 min,55.7%
same,percent remaining of initial drug,[4]; 75 min,54.4%
same,percent remaining of initial drug,[4]; 90 min,54.2%
same,percent remaining of initial drug,[4]; 105 min,54.0%
same,percent remaining of initial drug,[4]; 120 min,52.1%
same,percent remaining of initial drug,[4]; 135 min,48.9%
same,percent remaining of initial drug,[4]; 150 min,48.9%
same,percent remaining of initial drug,[4]; 165 min,45.4%
same,percent remaining of initial drug,[4]; 180 min,44.0%
same,percent remaining of initial drug,[4]; 210 min,42.7%
same,percent remaining of initial drug,[4]; 240 min,42.2%
same,percent remaining of initial drug,[4]; 300 min,34.3%
same,percent remaining of initial drug,[4]; 360 min,30.1%
same,percent remaining of initial drug,[4]; 480 min,30.1%
